The results in this text go back to patent US20240368104A1, “Novel Dialkoxynaphtho[2,3-C]Furan-1(3H)-One Derivatives and Pharmaceutical Composition For Preventing or Treating Respiratory Disease or SARS-COV-2 Infection Disease, Comprising Same” (priority 2021, published 2024).

For data set [1], the system named is SARS-COV-2. As to the kind of experiment: microbe, parasite or virus in culture. It counts as cell-based. Details: SI (Selectivity Index, CC50/IC50): unit not given here. Particulars: for SI (Selectivity Index, CC50/IC50): SARS-COV-2, values >50 assumed to be 50; for IC50: read-out: SARS-COV-2 inhibition (IC50).
For data set [2], the system named is IL-5 expression in Th2 cells. Description: Inhibition of IL-5 expression in Th2 cells (ELISA). The conditions noted are these: Splenocyte, read-out: Inhibitory ability against IL-5 expression (%). It counts as cell-based, Balb/C mice. How it is done:
Specifically, after spleens were collected from Balb/C mice, CD4+ T cells were isolated therefrom and were seeded at 1-2×10^6 per well into a 48-well tissue culture plate coated with anti-CD3 (5 ug/ml) and anti-CD28 (1 ug/ml). At this time, the culture medium was incubated with IL-2 (20 ng/ml), IL-4 (100 ng/ml), anti-IFNγ (10 ug/ml), anti-IL12 (10 ug/ml), and a derivative of 1 nM for two days, transferred to a new tissue culture plate, and further cultured for three days to induce differentiation into Th2 cells. After replacing with a new medium containing anti-IFNγ (10 ug/ml), anti-IL12 (10 ug/ml) and a derivative of 1 nM, polarization of Th2 cells was induced using PMA and A23187. After two days of culture, the cells were centrifuged and the culture medium was taken to perform IL-5 ELISA. IL-5 ELISA was performed according to the test method of the kit manufacturer.

The nature of data set [3]: in vitro. The conditions noted are these: African green monkey.
[4] abbreviates: Severe acute respiratory syndrome coronavirus 2, Vero cells, 24 hours infection.
[5] abbreviates: Th2 cells from mouse splenocytes, compound 1 nM.

Read-outs that look alike come from different tables or passages of the source. A value given as a limit tells only on which side of the number the result lay.

The term IC50 denotes the concentration that gives 50% inhibition. Take `CCCCCCOCCN(CCCCCC)c1ncc(-c2c3c(cc4cc(OC)c(OC)cc24)COC3=O)cn1` [Example 48, 9-(2-(hexyl(2-(hexyloxy)ethyl)amino)pyrimidin-5-yl)-6,7-dimethoxynaphtho[2,3-c]furan-1(3H)-one]: in data set [1], the “SI (Selectivity Index, CC50/IC50)” value is listed as 2.55. Further, the IC50 in data set [1] (setting [4]) was found to be 19.6 µM. Besides, the inhibition at 0.001 µM in data set [2] (setting [5]) came to 58.1%. The CC50 in data set [3] is > 50 µM.
The corresponding values for `COc1cc2cc3c(c(-c4cnc(Oc5ccc6c(c5)OCO6)nc4)c2cc1OC)C(=O)OC3` [Example 20, 9-(2-(benzo[d][1,3]dioxol-5-yloxy)pyrimidin-5-yl)-6,7-dimethoxynaphtho[2,3-c]furan-1(3H)-one] are 1.00, > 50 µM, 40.8% and > 50 µM.
The corresponding values for `COc1cc2cc3c(c(-c4cnc(NCCCn5ccnc5)nc4)c2cc1OC)C(=O)OC3` [Example 16, 9-(2-((3-(1H-imidazol-1-yl)propyl)amino)pyrimidin-5-yl)-6,7-dimethoxynaphtho[2,3-c]furan-1(3H)-one] are 1.6, 31.2 µM, 70.8% and > 50 µM.
In the case of `CCCOCCN(CCC)c1ncc(-c2c3c(cc4cc(OC)c(OC)cc24)COC3=O)cn1` [Example 42, 6,7-dimethoxy-9-(2-((2-propoxyethyl)(propyl)amino)pyrimidin-5-yl)naphtho[2,3-c]furan-1(3H)-one], the “SI (Selectivity Index, CC50/IC50)” value in data set [1] was found to be 1.00. For the same compound, in data set [1] (setting [4]), the IC50 is > 50 µM. Also, the inhibition at 0.001 µM in data set [2] (setting [5]) is 64.8%. In addition, the CC50 in data set [3] is > 50 µM.
Turning to `COc1cc2cc3c(c(-c4cnc(O[C@H]5CN6CCC5CC6)nc4)c2cc1OC)C(=O)OC3` [Example 17, (R)-6,7-dimethoxy-9-(2-(quinuclidin-3-yloxy)pyrimidin-5-yl)naphtho[2,3-c]furan-1(3H)-one], the “SI (Selectivity Index, CC50/IC50)” value in data set [1] was determined as 1.59. Further, in data set [1] (Severe acute respiratory syndrome coronavirus 2, Vero, 24 h), the IC50 was found to be 31.4 µM. In addition, the inhibition at 0.001 µM in data set [2] (Mus musculus) stood at 55.2%. Also, the CC50 in data set [3] was > 50 µM.
`CCC(C)Oc1ncc(-c2c3c(cc4cc(OC)c(OC)cc24)COC3=O)cn1` (stereo not shown) [Example 25, 9-(2-(sec-butoxy)pyrimidin-5-yl)-6,7-dimethoxynaphtho[2,3-c]furan-1(3H)-one]: in data set [1], the “SI (Selectivity Index, CC50/IC50)” value worked out at 1.00. Further, the IC50 in data set [1] (setting [4]) was > 50 µM. Moreover, the inhibition at 0.001 µM in data set [2] (setting [5]) is 56.8%. Further, in data set [3], the CC50 was > 50 µM.
`COc1cc2cc3c(c(-c4ccc5nccnc5c4)c2cc1OC)C(=O)OC3` [Example 40, 6,7-dimethoxy-9-(quinoxalin-6-yl)naphtho[2,3-c]furan-1(3H)-one]: in data set [1], the “SI (Selectivity Index, CC50/IC50)” value was found to be 76.71. Moreover, in data set [1] (setting [4]), the IC50 is 0.65 µM. The inhibition at 0.001 µM in data set [2] (setting [5]) stood at 65.1%. The CC50 in data set [3] is > 50 µM.
The corresponding values for `COc1cc2cc3c(c(-c4cnc(OCCN5CCOCC5)nc4)c2cc1OC)C(=O)OC3` [Example 13, 6,7-dimethoxy-9-(2-(2-morpholinoethoxy)pyrimidin-5-yl)naphtho[2,3-c]furan-1(3H)-one] are 1.00, > 50 µM, 67.7% and > 50 µM.
On to `COc1cc2cc3c(c(-c4cnc(N5CCC[C@H]5C(=O)N[C@@H](C)c5ccc(F)cc5)nc4)c2cc1OC)C(=O)OC3` [Example 39, (S)-1-(5-(6,7-dimethoxy-3-oxo-1,3-dihydronaphtho[2,3-c]furan-4-yl)pyrimidin-2-yl)-N—((S)-1-(4-fluorophenyl)ethyl)pyrrolidin-2-carboxamide], for which, in data set [1], the “SI (Selectivity Index, CC50/IC50)” value came to 1.98. In data set [1] (setting [4]), the concentration for half-maximal inhibition (IC50) was 13.6 µM. In addition, the inhibition at 0.001 µM in data set [2] (setting [5]) worked out at 47.7%. The CC50 in data set [3] is > 50 µM.
The corresponding values for `COc1cc2cc3c(c(-c4cnc(N5CCC[C@H]5C(=O)N5C[C@@H](C)O[C@@H](C)C5)nc4)c2cc1OC)C(=O)OC3` [Example 24, 9-(2-((S)-2-((2S,6R)-2,6-dimethylmorpholin-4-carbonyl)pyrrolidin-1-yl)pyrimidin-5-yl)-6,7-dimethoxynaphtho[2,3-c]furan-1(3H)-one] are 1.00, > 50 µM, 72.3% and > 50 µM.
On the same counts, the results for `COc1cc2cc3c(c(-c4cnc(N5CCC[C@H]5C(=O)NCc5ccc(C)o5)nc4)c2cc1OC)C(=O)OC3` [Example 41, (S)-1-(5-(6,7-dimethoxy-3-oxo-1,3-dihydronaphtho[2,3-c]furan-4-yl)pyrimidin-2-yl)-N-((5-methylfuran-2-yl)methyl)pyrrolidin-2-carboxamide] are 2.41, 15.2 µM, 66% and > 50 µM.
As for `COc1cc2cc3c(c(-c4cnc(N[C@H]5CC[C@H](O)CC5)nc4)c2cc1OC)C(=O)OC3` [Example 47, 9-(2-(((1r,4r)-4-hydroxycyclohexyl)amino)pyrimidin-5-yl)-6,7-dimethoxynaptho[2,3-c]furan-1(3H)-one], the “SI (Selectivity Index, CC50/IC50)” value in data set [1] stood at 1.00. In data set [1] (setting [4]), the IC50 is > 50 µM. The inhibition at 0.001 µM in data set [2] (setting [5]) turned out to be 61%. In data set [3], the CC50 was > 50 µM.
As for `CCOC(=O)C1CCCN(c2ncc(-c3c4c(cc5cc(OC)c(OC)cc35)COC4=O)cn2)C1` (stereo not shown) [Example 15, Ethyl 1-(5-(6,7-dimethoxy-3-oxo-1,3-dihydronaphtho[2,3-c]furan-4-yl)pyrimidin-2-yl) piperidin-3-carboxylate], in data set [1], the “SI (Selectivity Index, CC50/IC50)” value amounted to 11.37. For the same compound, the IC50 in data set [1] (setting [4]) came to 4.4 µM. Besides, in data set [2] (setting [5]), the inhibition at 0.001 µM amounted to 82.9%. In data set [3], the CC50 is > 50 µM.
On the same counts, the results for `COc1cc2cc3c(c(-c4ccc5oc6ccccc6c5c4)c2cc1OC)C(=O)OC3` [Example 43, 9-(dibenzo[b,d]furan-2-yl)-6,7-dimethoxynaphtho[2,3-c]furan-1(3H)-one] are 1.00, > 50 µM, 65.9% and > 50 µM.
On the same counts, the results for `COc1cc2cc3c(c(-c4cnc(NCc5ccc(C)o5)nc4)c2cc1OC)C(=O)OC3` [Example 50, 6,7-dimethoxy-9-(2-(((5-methylfuran-2-yl)methyl)amino)pyrimidin-5-yl)naphtho[2,3-c]furan-1(3H)-one] are 5.27, 9.49 µM, 61.5% and > 50 µM.
The corresponding values for `COc1cc2cc3c(c(-c4cnc(N[C@H]5CCc6c(cccc6OC)C5)nc4)c2cc1OC)C(=O)OC3` [Example 22, (S)-6,7-dimethoxy-9-(2-((5-methoxy-1,2,3,4-tetrahydronaphthalen-2-yl)amino)pyrimidin-5-yl)naphtho[2,3-c]furan-1(3H)-one] are 10.64, 4.7 µM, 59.9% and > 50 µM.
Regarding `CCCOCCNc1ncc(-c2c3c(cc4cc(OC)c(OC)cc24)COC3=O)cn1` [Example 37, 6,7-dimethoxy-9-(2-((2-propoxyethyl)amino)pyrimidin-5-yl)naphtho[2,3-c]furan-1(3H)-one], the “SI (Selectivity Index, CC50/IC50)” value in data set [1] is 1.00. Moreover, in data set [1] (setting [4]), the IC50 is > 50 µM. For the same compound, the inhibition at 0.001 µM in data set [2] (setting [5]) is 56%. The CC50 in data set [3] was > 50 µM.
For `COc1cc2cc3c(c(-c4cnc5ccccc5c4)c2cc1OC)C(=O)OC3` [Example 46, 6,7-dimethoxy-9-(quinolin-3-yl)naphtho[2,3-c]furan-1(3H)-one], the “SI (Selectivity Index, CC50/IC50)” value in data set [1] was determined as 512.00. Also, the IC50 in data set [1] (setting [4]) is 0.1 µM. In addition, the inhibition at 0.001 µM in data set [2] (setting [5]) came to 50.4%. Further, in data set [3], the CC50 is > 50 µM.
On the same counts, the results for `COCCN(C)c1ncc(-c2c3c(cc4cc(OC)c(OC)cc24)COC3=O)cn1` [Example 18, 6,7-dimethoxy-9-(2-((2-methoxyethyl)(methyl)amino)pyrimidin-5-yl)naphtho[2,3-c]furan-1(3H)-one] are 99.07, 0.5 µM, 72.3% and > 50 µM.
For the compound `COC(=O)[C@@H](C)NC(=O)[C@@H]1CCCN1c1ncc(-c2c3c(cc4cc(OC)c(OC)cc24)COC3=O)cn1` [Example 38, Methyl (5-(6,7-dimethoxy-3-oxo-1,3-dihydronaphtho[2,3-c]furan-4-yl)pyrimidin-2-yl)-L-prolyl-D-alaninate], in data set [2] (setting [5]), the inhibition at 0.001 µM was 62.8%.
The same measure, in the same setting: to `CCOC(=O)CNC(=O)[C@@H]1CCCN1c1ncc(-c2c3c(cc4cc(OC)c(OC)cc24)COC3=O)cn1` [Example 45, Ethyl (5-(6,7-dimethoxy-3-oxo-1,3-dihydronaphtho[2,3-c]furan-4-yl)pyrimidin-2-yl)-L-proglycinate] belongs 64.2%.
Same read-out and setting: under `CCOC(=O)CNc1ncc(-c2c3c(cc4cc(OC)c(OC)cc24)COC3=O)cn1` [Example 44, Ethyl (5-(6,7-dimethoxy-3-oxo-1,3-dihydronaphtho[2,3-c]furan-4-yl)pyrimidin-2-yl)glycinate] stands 58.3%.
